Laboratory results as given in ChEMBL document CHEMBL3885861, “Open TG-GATES”.

Species: Rattus norvegicus
Test: Open TG-GATES - Regimen: Single
Format: toxicity, organism-based, Sprague-Dawley
Parameters: regimen Single, gender Male, age 6 weeks
Conditions: in vivo, po, 300 mg/kg, route gavage, dose level High; for APTT / Bas / Eos / Fbg / Hb / Ht / Lym / MCH / MCHC / MCV / Mono / Neu / PT / Plat / RBC / Ret / WBC: tissue Blood; for KIDNEY_L / KIDNEY_R / KIDNEY_TOTAL: tissue Kidney; for LIVER: tissue Liver; for A/G / ALP / ALT / AST / BUN / CRE / Ca / Cl / DBIL / GLC / IP / K / LDH / Na / PL / RALB / TBIL / TC / TG / TP / gamma-GTP: tissue Plasma

## Cc1cccc(Nc2ccccc2C(=O)O)c1C [MEFENAMIC ACID]
3 h
  TERMINAL_BW: 215.2 g
  APTT: 18.8 s
  Bas: 0%
  Eos: 1.2%
  Fbg: 229.4 mg/dL
  Hb: 12.9 g/dL
  Ht: 36.2%
  Lym: 73.6%
  MCH: 21.8 pg
  MCHC: 35.6%
  MCV: 61.3 fL
  Mono: 2.8%
  Neu: 20.2%
  PT: 12.4 s
  Plat: 115.5 x10_4/uL
  RBC: 591.2 x10_4/ul
  Ret: 7.5%
  WBC: 95.9 x10_2/uL
  KIDNEY_L: 1 g
  KIDNEY_R: 1 g
  KIDNEY_TOTAL: 2 g
  LIVER: 9.5 g
  A/G: 1.5
  ALP: 832.8 IU/L
  ALT: 35.8 IU/L
  AST: 66.4 IU/L
  BUN: 11.6 mg/dL
  CRE: 0.4 mg/dL
  Ca: 10.7 mg/dL
  Cl: 102.6 meq/L
  DBIL: 0.072 mg/dL
  GLC: 181.2 mg/dL
  IP: 8.6 mg/dL
  K: 4.3 meq/L
  LDH: 184 IU/L
  Na: 139.6 meq/L
  PL: 134.2 mg/dL
  RALB: 3.2 g/dL
  TBIL: 0.1 mg/dL
  TC: 73.2 mg/dL
  TG: 38.4 mg/dL
  TP: 5.4 g/dL
  gamma-GTP: 1.4 IU/L
6 h
  TERMINAL_BW: 215.5 g
  APTT: 18.9 s
  Bas: 0%
  Eos: 1%
  Fbg: 220 mg/dL
  Hb: 13.2 g/dL
  Ht: 36.8%
  Lym: 73.2%
  MCH: 21.5 pg
  MCHC: 35.8%
  MCV: 60.2 fL
  Mono: 3%
  Neu: 19.6%
  PT: 12.7 s
  Plat: 114.8 x10_4/uL
  RBC: 612.4 x10_4/ul
  Ret: 7.5%
  WBC: 106.7 x10_2/uL
  KIDNEY_L: 1 g
  KIDNEY_R: 1 g
  KIDNEY_TOTAL: 2 g
  LIVER: 8.8 g
  A/G: 1.6
  ALP: 1032.8 IU/L
  ALT: 31.2 IU/L
  AST: 60.8 IU/L
  BUN: 13 mg/dL
  CRE: 0.3 mg/dL
  Ca: 10.4 mg/dL
  Cl: 104.2 meq/L
  DBIL: 0.06 mg/dL
  GLC: 194.6 mg/dL
  IP: 9.1 mg/dL
  K: 4.1 meq/L
  LDH: 175 IU/L
  Na: 140.2 meq/L
  PL: 133.4 mg/dL
  RALB: 3.3 g/dL
  TBIL: 0.1 mg/dL
  TC: 75.4 mg/dL
  TG: 39 mg/dL
  TP: 5.4 g/dL
  gamma-GTP: 1 IU/L
9 h
  TERMINAL_BW: 211.4 g
  APTT: 17.9 s
  Bas: 0%
  Eos: 1%
  Fbg: 221 mg/dL
  Hb: 13.1 g/dL
  Ht: 36.7%
  Lym: 70.4%
  MCH: 21.7 pg
  MCHC: 35.7%
  MCV: 60.7 fL
  Mono: 2.6%
  Neu: 22.8%
  PT: 13.1 s
  Plat: 112.4 x10_4/uL
  RBC: 604.8 x10_4/ul
  Ret: 7.5%
  WBC: 77.5 x10_2/uL
  KIDNEY_L: 1 g
  KIDNEY_R: 1 g
  KIDNEY_TOTAL: 2 g
  LIVER: 8.1 g
  A/G: 1.6
  ALP: 800.8 IU/L
  ALT: 29.8 IU/L
  AST: 58.8 IU/L
  BUN: 14.2 mg/dL
  CRE: 0.4 mg/dL
  Ca: 10.5 mg/dL
  Cl: 104.8 meq/L
  DBIL: 0.068 mg/dL
  GLC: 187.4 mg/dL
  IP: 9.4 mg/dL
  K: 4.2 meq/L
  LDH: 173.6 IU/L
  Na: 140.8 meq/L
  PL: 119 mg/dL
  RALB: 3.4 g/dL
  TBIL: 0.1 mg/dL
  TC: 65 mg/dL
  TG: 35.6 mg/dL
  TP: 5.5 g/dL
  gamma-GTP: 1 IU/L
24 h
  TERMINAL_BW: 225 g
  APTT: 18.3 s
  Bas: 0%
  Eos: 0.8%
  Fbg: 289.8 mg/dL
  Hb: 12.9 g/dL
  Ht: 36.8%
  Lym: 60.4%
  MCH: 22 pg
  MCHC: 35.1%
  MCV: 62.8 fL
  Mono: 3%
  Neu: 31.4%
  PT: 11.8 s
  Plat: 115.4 x10_4/uL
  RBC: 585.4 x10_4/ul
  Ret: 7%
  WBC: 131.5 x10_2/uL
  KIDNEY_L: 1 g
  KIDNEY_R: 1 g
  KIDNEY_TOTAL: 2.1 g
  LIVER: 10.5 g
  A/G: 1.5
  ALP: 850.8 IU/L
  ALT: 36 IU/L
  AST: 61.4 IU/L
  BUN: 14.2 mg/dL
  CRE: 0.4 mg/dL
  Ca: 10.4 mg/dL
  Cl: 103.6 meq/L
  DBIL: 0.08 mg/dL
  GLC: 185.2 mg/dL
  IP: 7.8 mg/dL
  K: 3.8 meq/L
  LDH: 187.2 IU/L
  Na: 141.4 meq/L
  PL: 133.4 mg/dL
  RALB: 3 g/dL
  TBIL: 0.1 mg/dL
  TC: 67 mg/dL
  TG: 100.2 mg/dL
  TP: 5 g/dL
  gamma-GTP: 2 IU/L
